The test has as its target RIPK1 (Homo sapiens (Human), UniProt Q13546). Kind of test: RIPK1-ADP-Glo Enzymatic Assay. The following applies: recombinant GST-RIPK1 kinase domain (residues 1-327), 25 nM, ten-point titration, 30 minutes pre-incubation. Type of test: biochemical. As for the experimental part: The enzymatic activity of RIPK1 was measured using an assay derived from ADP-Glo kit (™Promega), which provides a luminescent-based ADP detection system. Specifically, the ADP generated by RIPK1 kinase was proportionally detected as luminescent signals in a homogenous fashion. In this context, the assessment of the inhibitory effect of small molecules (EC50) was measured by the effectiveness of the compounds to inhibit the ATP to ADP conversion by RIPK1.
In this assay, the potency (EC50) of each compound was determined from a ten-point (1:3 serial dilution: top compound concentration of 100000 nM) titration curve using the following outlined procedure. To each well of a white ProxiPlus 384 well-plate, 30 nL of compound (1% DMSO in final assay volume of 3 μL) was dispensed, followed by the addition of 2 μL of 1x assay buffer (25 mM Hepes 7.3, 20 mM MgCl2, 50 mM NaCl, 1 mM DTT, 0.005% Tween20, and 0.02% BSA) containing 37.5 nM of GST-RIPK1 (recombinant GST-RIPK1 kinase domain (residues 1-327) enzyme produced from baculovirus-transfected Sf21 cells: MW=62 kDa). Plates were placed in an ambient temperature humidified chamber for a 30 minutes pre-incubation with compound. Subsequently, each reaction was initiated by the addition of 1 μL 1× assay buffer containing […] dephosphorylated-MBP substrate. The final reaction in each well of 3 μL consists of 25 nM of GST-RIPK1, 300 µM ATP, and 3 μM dephosphorylated-MBP. Kinase reactions were allowed to proceed for 150 minutes prior to adding ADP-Glo reagents per Promega's outlined kit protocol. Dose-response curves were generated by plotting percent effect (% product conversion: Y-axis) vs. Logio compound concentrations (X-axis). EC50 values were calculated using a non-linear regression, four-parameters sigmoidal dose-response model and are provided for example compounds of the invention (labeled “RIPK1 EC50 (nM)” throughout the above examples).
Background: ADP-Glo first removes unused ATP, then detects ADP through luciferase.

RIPK1, sequence (Q13546 1-327): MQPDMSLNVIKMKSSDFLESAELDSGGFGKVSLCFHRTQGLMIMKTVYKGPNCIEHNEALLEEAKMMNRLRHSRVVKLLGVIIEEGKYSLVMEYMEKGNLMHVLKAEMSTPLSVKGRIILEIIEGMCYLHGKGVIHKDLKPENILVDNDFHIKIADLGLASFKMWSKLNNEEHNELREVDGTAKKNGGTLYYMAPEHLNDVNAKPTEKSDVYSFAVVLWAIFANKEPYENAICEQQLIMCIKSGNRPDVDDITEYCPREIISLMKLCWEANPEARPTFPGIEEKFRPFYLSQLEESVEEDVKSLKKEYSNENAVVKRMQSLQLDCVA

As to `O=C1N2[C@H](c3cc(F)cc(F)c3)CCN2CC12CCN(c1ncnc3sccc13)CC2` [Example 1.68, (S)-7′-(3,5-difluorophenyl)-1-(thieno[2,3-d]pyrimidin-4-yl)dihydro-1′H,3′H,5′H-spiro [piperidine-4,2′-pyrazolo[1,2-a]pyrazol]-1′-one], the EC50 came to 24 nM.
Then `COc1ccc(C(=O)N2CCC3(CC2)CN2CC[C@@H](c4cc(F)cc(F)c4)N2C3=O)cc1F` [Example 4.16, (S)-7′-(3,5-difluorophenyl)-1-(3-fluoro-4-methoxybenzoyl) dihydro-l′H,3′H,5′H-spiro[piperidine-4,2′-pyrazolo[1,2-a]pyrazol]-l′-one], with 83 nM; and `O=C(c1ccccc1)N1CCC2(CC1)CN1CC[C@@H](c3cc(F)cc(F)c3)N1C2=O` [Example 5.1], with 13 nM.
To `N#Cc1cnc(N2CCC3(CC2)CN2CC[C@@H](c4cc(F)cc(F)c4)N2C3=O)cn1` [Example 2.19, (S)-5-(7′-(3,5-difluorophenyl)-1′-oxodihydro-l′H,3′H,5′H-spiro[piperidine-4,2′-pyrazolo[1,2-a]pyrazol]-1-y1)pyrazine-2-carbonitrile] belongs 27 nM.
Then `CSc1cnc(N2CCC3(CC2)CN2CC[C@@H](c4cc(F)cc(F)c4)N2C3=O)nc1` [Example 1.22, (S)-7′-(3,5-difluorophenyl)-1-(5-(methylthio)pyrimidin-2-yl)dihydro-1′H,3′H,5′H-spiro [piperidine-4,2′-pyrazolo[1,2-a]pyrazol]-1′-one], with 89 nM; and `COc1cc(N2CCC3(CC2)CN2CC[C@@H](c4cc(F)cc(F)c4)N2C3=O)ccn1` [Example 1.89, (S)-7′-(3,5-difluorophenyl)-1-(2-methoxypyridin-4-yl)dihydro-1′H,3′H,5′H-spiro[piperidine-4,2′-pyrazolo[1,2-a]pyrazol]-1′-one], with 24 nM.
With `O=C1N2[C@H](c3cc(F)cc(F)c3)CCN2CC12CCN(c1cccc(F)c1)CC2` [Example 10.1, (S)-7′-(3,5-difluorophenyl)-1-(3-fluorophenyl) dihydro-1′H,3′H,5′H-spiro [piperidine-4,2′-pyrazolo[1,2-α]pyrazol]-1′-one], the EC50 came to 47 nM.
To `Cn1ccc(C(=O)N2CCC3(CC2)CN2CC[C@@H](c4cc(F)cc(F)c4)N2C3=O)n1` [Example 4.6, (S)-7′-(3,5-difluorophenyl)-1-(1-methyl-1H-pyrazole-3-carbonyl)dihydro-1′H,3′H,5′H-spiro[piperidine-4,2′-pyrazolo[1,2-a]pyrazol]-l′-one] belongs 594 nM; to `O=C1N2[C@H](c3cc(F)cc(F)c3)CCN2CC12CCN(c1ccc(Br)c3ccnn13)CC2` [Example 2.1], 7.5 nM.
Then `N#Cc1cccc(N2CCC3(CC2)CN2CC[C@@H](c4cc(F)cc(F)c4)N2C3=O)n1` [Example 1.58, (S)-6-(7′-(3,5-difluorophenyl)-1′-oxodihydro-1′H,3′H,5′H-spiro[piperidine-4,2′-pyrazolo[1,2-a]pyrazol]-1-yl)picolinonitrile], with 34 nM; and `O=C1N2[C@H](c3cc(F)cc(F)c3)CCN2CC12CCN(c1nc(Cl)nc3c1CCC3)CC2` [Example 1.65, (S)-1-(2-chloro-6,7-dihydro-5H-cyclopenta[d]pyrimidin-4-yl)-7′-(3,5-difluorophenyl)dihydro-1′H,3′H,5′H-spiro[piperidine-4,2′-pyrazolo[1,2-a]pyrazol]-1′-one], with 144 nM; and `N#Cc1cc(N2CCC3(CC2)CN2CC[C@@H](c4cc(F)cc(F)c4)N2C3=O)ncn1` [Example 1.74, (S)-6-(7′-(3,5-difluorophenyl)-1′-oxodihydro-1′H,3′H,5′H-spiro[piperidine-4,2′-pyrazolo[1,2-a]pyrazol]-1-yl)pyrimidine-4-carbonitrile], with 30 nM.
Then `O=C1N2[C@H](c3cc(F)cc(F)c3)CCN2CC12CCN(c1ccnc3ccnn13)CC2` [Example 2.10, (S)-7′-(3,5-difluorophenyl)-1-(pyrazolo[1,5-a]pyrimidin-7-yl)dihydro-1′H,3′H,5′H-spiro[piperidine-4,2′-pyrazolo[1,2-a]pyrazol]-1′-one], with 33 nM.
For the compound `O=C1N2[C@H](c3cc(F)cc(F)c3)CCN2CC12CCN(c1cc(O)ncn1)CC2` [Example 1.2, (7′S)-7′-(3,5-difluorophenyl)-1-(6-hydroxypyrimidin-4-yl)dihydro-1′H,3′H,5′H-spiro[piperidine-4,2′-pyrazolo[1,2-a]pyrazol]-1′-one], the EC50 was determined as 151 nM.
To `CCc1nccc(N2CCC3(CC2)CN2CC[C@@H](c4cc(F)cc(F)c4)N2C3=O)n1` [Example 1.20, (S)-7′-(3,5-difluorophenyl)-1-(2-ethylpyrimidin-4-yl)dihydro-1′H,3′H,5′H-spiro[piperidine-4,2′-pyrazolo[1,2-a]pyrazol]-1′-one] belongs 159 nM; to `Cn1cnc(N2CCC3(CC2)CN2CC[C@@H](c4cc(F)cc(F)c4)N2C3=O)cc1=O` [Example 1.91, (S)-7′-(3,5-difluorophenyl)-1-(1-methyl-6-oxo-1,6-dihydropyrimidin-4-yl)dihydro-1′H,3′H,5′H-spiro [piperidine-4,2′-pyrazolo[1,2-a]pyrazol]-1′-one], 750 nM.
To `CCCOc1ccnc(N2CCC3(CC2)CN2CC[C@@H](c4cc(F)cc(F)c4)N2C3=O)c1` [Example 2.24, (S)-7′-(3,5-difluorophenyl)-1-(4-propoxypyridin-2-yl)dihydro-l′H,3′H,5′H-spiro[piperidine-4,2′-pyrazolo[1,2-a]pyrazol]-1′-one] belongs 907 nM; to `CN(C)C(=O)c1ccnc(N2CCC3(CC2)CN2CC[C@@H](c4cc(F)cc(F)c4)N2C3=O)n1` [Example 1.88, (S)-2-(7′-(3,5-difluorophenyl)-1′-oxodihydro-1′H,3′H,5′H-spiro[piperidine-4,2′-pyrazolo[1,2-a]pyrazol]-1-yl)-N,N-dimethylpyrimidine-4-carboxamide], 111 nM; to `O=C(c1cnccn1)N1CCC2(CC1)CN1CC[C@@H](c3cc(F)cc(F)c3)N1C2=O` [Example 4.1, (S)-7′-(3,5-difluorophenyl)-1-(pyrazine-2-carbonyl) dihydro-1′H,3′H,5′H-spiro [piperidine-4,2′-pyrazolo[1,2-a]pyrazol]-1′-one], 50 nM.
Regarding `Cn1cc(-c2cc(N3CCC4(CC3)CN3CC[C@@H](c5cc(F)cc(F)c5)N3C4=O)ncn2)cn1` [Example 1.93, (S)-7′-(3,5-difluorophenyl)-1-(6-(1-methyl-1H-pyrazol-4-yl)pyrimidin-4-yl)dihydro-1′H,3′H,5′H-spiro[piperidine-4,2′-pyrazolo[1,2-a]pyrazol]-1′-one], the 50% effective concentration (EC50) was found to be 17 nM.
Then `COc1nc(N2CCC3(CC2)CN2CC[C@@H](c4cc(F)cc(F)c4)N2C3=O)ncc1F` [Example 1.85, (S)-7′-(3,5-difluorophenyl)-1-(5-fluoro-4-methoxypyrimidin-2-yl)dihydro-1′H,3′H,5′H-spiro[piperidine-4,2′-pyrazolo[1,2-a]pyrazol]-1′-one], with 22 nM.
Then `N#Cc1ccc(N2CCC3(CC2)CN2CC[C@@H](c4cc(F)cc(F)c4)N2C3=O)c2ccnn12` [Example 2.2, (S)-4-(7′-(3,5-difluorophenyl)-1′-oxodihydro-l′H,3′H,5′H-spiro[piperidine-4,2′-pyrazolo[1,2-a]pyrazol]-1-yl)pyrazolo[1,5-a]pyridine-7-carbonitrile], with 9 nM.

The EC50 is the concentration that produces a half-maximal response.

These data come from patent publication US20240425524A1, “SPIROTRICYCLE RIPK1 INHIBITORS AND METHODS OF USES THEREOF” (Merck Sharp & Dohme LLC, priority 2021, published 2024).
